Experimental data published in ChEMBL document CHEMBL1126710, “A new candidate for an anti-HIV-1 agent: modified cyclodextrin sulfate (mCDS71)” (J Med Chem, 1993).

Columns and labels:
[1] = Tested for anticoagulation effect by Zuchker's activated partial thromboplastin time (APTT) method; type: functional
[2] = (§1) Tested for cytopathic effect caused by KK-1AIDS strain in MT-4 cells in the presence of human serum; type: functional, cell-based; details: MT4, Serum
MT4 [3] = experiment: Tested against HIV-1 induced cytopathic effect in MT-4 cells on LAV-1 strain; type: functional, Homo sapiens
[4] = system: Human immunodeficiency virus 1; experiment: Tested against HIV-1 replication of KK-1AIDS strain in peripheral blood mononuclear cells (value obtained in the presence of 20% FCS); type: functional, organism-based
MOLT-4 = experiment: Tested for the suppressive effect on giant cell formation in MOLT-4 and MOLT-4/HIV LAV-1 cells (value obtained in the presence of 10% FCS); type: functional, cell-based; details: Homo sapiens
[5] = (§2) Tested for cytopathic effect caused by LAV-1 strain in MT-4 cells in the presence of human serum; type: functional, cell-based; details: MT4, Serum
MT4 [6] = experiment: Tested against HIV-1 induced cytopathic effect in MT-4 cells on KK-1AIDS (strain clinically isolated from an AIDS patient); type: functional, Homo sapiens
MT4 [7] = experiment: Tested for appearance of MT-4 cell toxicity after 5 days of incubation; type: functional; details: Homo sapiens, MT4, 120 h; read-out: TD50 (the source's name)
MT4 [8] = experiment: as §1; type: functional, cell-based
MT4 [9] = experiment: as §2; type: functional, cell-based

Row | Compound | APTT [1] [µg/mL] | IC50 [2] [µg/mL] | IC100 (MT4 [3]) [µg/mL] | IC50 [4] [µg/mL] | IC50 (MOLT-4) [µg/mL] | IC50 [5] [µg/mL] | IC100 (MT4 [6]) [µg/mL] | CC50 (MT4 [7]) [µg/mL] | IC50 (MT4 [8]) [µg/mL] | IC50 (MT4 [9]) [µg/mL]
1 | O=S(=O)([O-])OC[C@@H]1O[C@@H]2O[C@H]3[C@H](OS(=O)(=O)[O-])[C@H](OCc4ccccc4)[C@@H](O[C@H]4[C@H](OS(=O)(=O)[O-])[C@H](OCc5ccccc5)[C@@H](O[C@H]5[C@H](OS(=O)(=O)[O-])[C@H](OCc6ccccc6)[C@@H](O[C@H]6[C@H](OS(=O)(=O)[O-])[C@H](OCc7ccccc7)[C@@H](O[C@H]7[C@H](OS(=O)(=O)[O-])[C@H](OCc8ccccc8)C(O[C@H]8[C@H](OS(=O)(=O)[O-])[C@H](OCc9ccccc9)C(O[C@H]1[C@H](OS(=O)(=O)[O-])[C@@H]2OCc1ccccc1)O[C@H]8COS(=O)(=O)[O-])O[C@H]7COS(=O)(=O)[O-])O[C@H]6COS(=O)(=O)[O-])O[C@H]5COS(=O)(=O)[O-])O[C@H]4COS(=O)(=O)[O-])O[C@H]3COS(=O)(=O)[O-].[Na+].[Na+].[Na+].[Na+].[Na+].[Na+].[Na+].[Na+].[Na+].[Na+].[Na+].[Na+].[Na+].[Na+] | 14.8 | 5.8 | 0.98 | 3.6 | 0.46 | 0.87 | 0.98 | 1000 | – | –
2 | O=S(=O)([O-])OCC1O[C@H]2O[C@@H]3C(COS(=O)(=O)[O-])O[C@H](O[C@@H]4C(COS(=O)(=O)[O-])O[C@H](O[C@@H]5C(COS(=O)(=O)[O-])O[C@H](O[C@@H]6C(COS(=O)(=O)[O-])O[C@@H](O[C@@H]7C(COS(=O)(=O)[O-])O[C@H](O[C@@H]8C(COS(=O)(=O)[O-])O[C@H](O[C@H]1C(OS(=O)(=O)[O-])C2O)C(OCc1ccccc1)C8OS(=O)(=O)[O-])C(O)C7OS(=O)(=O)[O-])C(OCc1ccccc1)C6OS(=O)(=O)[O-])C(OS(=O)(=O)[O-])C5OS(=O)(=O)[O-])C(OCc1ccccc1)C4OS(=O)(=O)[O-])C(OS(=O)(=O)[O-])C3OS(=O)(=O)[O-].[Na+].[Na+].[Na+].[Na+].[Na+].[Na+].[Na+].[Na+].[Na+].[Na+].[Na+].[Na+].[Na+].[Na+].[Na+].[Na+] (some centres undefined) | 4 | – | 1.95 | – | – | – | 3.9 | > 1000 | – | –
3 | O=S(=O)([O-])OC[C@@H]1O[C@@H]2O[C@H]3[C@H](OS(=O)(=O)[O-])[C@H](O)[C@@H](O[C@H]4[C@H](OS(=O)(=O)[O-])[C@H](O)[C@@H](O[C@H]5[C@H](OS(=O)(=O)[O-])[C@H](O)[C@@H](O[C@H]6[C@H](OS(=O)(=O)[O-])[C@H](O)[C@@H](O[C@H]7[C@H](OS(=O)(=O)[O-])[C@H](O)C(O[C@H]8[C@H](OS(=O)(=O)[O-])[C@H](O)C(O[C@H]1[C@H](OS(=O)(=O)[O-])[C@@H]2O)O[C@H]8COS(=O)(=O)[O-])O[C@H]7COS(=O)(=O)[O-])O[C@H]6COS(=O)(=O)[O-])O[C@H]5COS(=O)(=O)[O-])O[C@H]4COS(=O)(=O)[O-])O[C@H]3COS(=O)(=O)[O-].[K+].[K+].[K+].[K+].[K+].[K+].[K+].[K+].[K+].[K+].[K+].[K+].[K+].[K+] | 2.8 | – | 31.26 | – | – | – | 125 | > 1000 | – | –
4 | O=S(=O)([O-])OCC1O[C@H]2O[C@@H]3C(CSCc4ccccc4)O[C@H](O[C@@H]4C(COS(=O)(=O)[O-])O[C@H](O[C@@H]5C(COS(=O)(=O)[O-])O[C@@H](O[C@@H]6C(CSCc7ccccc7)O[C@H](O[C@@H]7C(COS(=O)(=O)[O-])O[C@H](O[C@@H]8C(CSCc9ccccc9)O[C@H](O[C@H]1C(O)C2OS(=O)(=O)[O-])C(OS(=O)(=O)[O-])C8OS(=O)(=O)[O-])C(OS(=O)(=O)[O-])C7OS(=O)(=O)[O-])C(OS(=O)(=O)[O-])C6OS(=O)(=O)[O-])C(O)C5OS(=O)(=O)[O-])C(OS(=O)(=O)[O-])C4OS(=O)(=O)[O-])C(OS(=O)(=O)[O-])C3OS(=O)(=O)[O-].[K+].[K+].[K+].[K+].[K+].[K+].[K+].[K+].[K+].[K+].[K+].[K+].[K+].[K+].[K+].[K+] (some centres undefined) | 7.1 | – | 0.98 | 6.5 | 2 | – | 1.95 | > 1000 | 11 | 4.5
